From PMC9967275, “Screening the Pathogen Box to Discover and Characterize New Cruzain and TbrCatL Inhibitors” (Pathogens, 2023)

Tests used:
[1] = target: cruzain (Trypanosoma cruzi, UniProt P25779); experiment: biochemical; details: for Cruzain 0’ Inhibition / Cruzain 10’ Inhibition: sheet "Screening results"; for Increase in the initial velocity of the reaction (%) 5 µM using PB samples Cruzain: PB library solutions; for Increase in the initial velocity of the reaction (%) 5 µM using PB samples Cruzain / Increase in the initial velocity of the reaction (%) 5 µM using solid samples Cruzain / Increase in the initial velocity of the reaction (%) 100 µM using solid samples Cruzain: 10 min pre-incubation, vs DMSO control; for Increase in the initial velocity of the reaction (%) 5 µM using solid samples Cruzain / Increase in the initial velocity of the reaction (%) 100 µM using solid samples Cruzain / Increase in the enzyme velocity in confirmatory assays: solid samples; for Increase in the enzyme velocity in confirmatory assays: varying compound concentrations
cruzain, sequence (P25779 123-337 limits assumed): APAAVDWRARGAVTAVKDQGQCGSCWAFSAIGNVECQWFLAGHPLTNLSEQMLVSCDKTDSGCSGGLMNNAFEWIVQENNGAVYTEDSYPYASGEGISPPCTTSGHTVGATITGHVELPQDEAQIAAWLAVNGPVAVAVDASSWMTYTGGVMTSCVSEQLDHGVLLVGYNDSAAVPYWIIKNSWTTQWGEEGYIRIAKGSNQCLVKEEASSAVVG
Summary of the method: (§1)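 Recombinant enzymes assayed by Z-Phe-Arg-AMC cleavage at 25 °C, fluorescence 340/440 nm over 5–7 min, with 10 min or no enzyme–compound preincubation.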

[2] = target: T1, TbrCatL (Trypanosoma brucei rhodesiense, UniProt Q95PM0); experiment: TbrCatL enzymatic inhibition assay (cleavage of fluorogenic substrate Z-FR-AMC); type: biochemical; details: for TbrCatL 0’ Inhibition / TbrCatL 10’ Inhibition: sheet "Screening results"; for Increase in the initial velocity of the reaction (%) 5 µM using PB samples TbrCatL: PB library solutions, 10 min pre-incubation, vs DMSO control; for Increase in initial velocity of substrate cleavage in comparison to the DMSO control: TbrCatL 10′ inc, screening at 5 µM
T1 construct: Conor Caffrey (University of California San Diego)
T1 sequence (Q95PM0 entry or part of it): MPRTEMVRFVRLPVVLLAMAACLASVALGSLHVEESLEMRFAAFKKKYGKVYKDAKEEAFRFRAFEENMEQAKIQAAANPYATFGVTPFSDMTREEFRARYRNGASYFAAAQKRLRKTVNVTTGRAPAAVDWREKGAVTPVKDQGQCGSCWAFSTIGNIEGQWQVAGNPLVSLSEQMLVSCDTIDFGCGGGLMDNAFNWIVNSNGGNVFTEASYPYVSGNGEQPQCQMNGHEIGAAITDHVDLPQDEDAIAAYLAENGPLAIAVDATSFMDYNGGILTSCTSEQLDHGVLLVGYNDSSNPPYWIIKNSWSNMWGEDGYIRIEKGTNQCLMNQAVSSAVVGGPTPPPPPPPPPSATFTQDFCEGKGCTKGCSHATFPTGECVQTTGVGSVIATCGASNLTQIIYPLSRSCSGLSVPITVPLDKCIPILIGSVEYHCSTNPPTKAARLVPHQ
Summary of the method: as §1

[3] = 0’ (no pre-incubation), sheet Screening results
[4] = 10’ (pre-incubation), sheet Screening results
[5] = 0’ (pre-incubation time), Pathogen Box screening results
[6] = 10’ (pre-incubation time), Pathogen Box screening results

| Compound | Cruzain Inhibition 0’ [1, 3] | Cruzain Inhibition 10’ [1, 4] | TbrCatL Inhibition 0’ [2, 3] | TbrCatL Inhibition 10’ [2, 4] | further results |
| --- | --- | --- | --- | --- | --- |
| O=C(Nc1cccnc1)c1c(O)c2cccc3c2n(c1=O)CC3 [MMV676395] | 10% | 8% | 17% | 19% | – |
| CCS(=O)(=O)N(Cc1ccco1)Cc1cc2ccc(C)cc2[nH]c1=O [MMV676398] | – | – | – | – | Cruzain 0’ Inhibition ([1]; 0’ (pre-incubation time)): 6.5%; Cruzain 10’ Inhibition ([1]; 10’ (pre-incubation time)): 28%; TbrCatL 0’ Inhibition ([2]; 0’ (pre-incubation time)): 8%; TbrCatL 10’ Inhibition ([2]; 10’ (pre-incubation time)): 9% |
| c1coc(CNc2nc(N3CCCCC3)nc3ccccc23)c1 [MMV676401] | 4.6% | 9% | 6.5% | 15% | – |
| CC(C)n1ncc2c(C(=O)NCC(c3cccs3)N3CCOCC3)cc(-c3ccccc3)nc21 (stereo not drawn) [MMV676406] | 6% | 6% | 17% | 15% | – |
| O=C(COc1cccc(F)c1)Nc1nc(-c2ccccn2)cs1 [MMV676409] | -227% | – | -77% | – | Increase in the initial velocity of the reaction (%) 5 µM using PB samples Cruzain [1]: 510 ± 216%; Increase in the initial velocity of the reaction (%) 5 µM using solid samples Cruzain [1]: -4 ± 2%; Increase in the initial velocity of the reaction (%) 100 µM using solid samples Cruzain [1]: 0 ± 6%; Increase in the enzyme velocity in confirmatory assays [1]: no increase in the enzyme velocity; Increase in the initial velocity of the reaction (%) 5 µM using PB samples TbrCatL [2]: 772 ± 382%; Increase in initial velocity of substrate cleavage in comparison to the DMSO control [2]: up to 8 fold |
| CC(Oc1ccccc1)C(=O)Nc1nc(-c2ccccn2)cs1 (stereo not drawn) [MMV676411] | – | – | – | – | Cruzain 0’ Inhibition ([1]; 0’ (pre-incubation time)): -2.3%; Cruzain 10’ Inhibition ([1]; 10’ (pre-incubation time)): 0.8%; TbrCatL 0’ Inhibition ([2]; 0’ (pre-incubation time)): -14%; TbrCatL 10’ Inhibition ([2]; 10’ (pre-incubation time)): -0.8% |
| N#Cc1nc(-c2ccccc2)oc1S(=O)(=O)c1ccc(Cl)cc1 [MMV676412] | 6% | -27% | 5.5% | -69% | – |
| Cc1ccc(NC(=O)CC2COc3ccccc3O2)cc1Cl (stereo not drawn) [MMV676431] | 0.5% | 4.3% | 5% | 5% | – |
| Cc1ccc2nc(Cl)c(CNCc3cccs3)cc2c1 [MMV676439] | -0.1% | 6.5% | 5.4% | 5% | – |
| CC(C)c1ncc(-c2ccncc2)c(C2CCC(CNC(=O)c3cccnc3)CC2)n1 (stereo not drawn) [MMV676442] | 4% | 1.2% | -7.5% | -6% | – |
| O=C(NC1CCCCC1)N1CCN(Cc2ccc3c(c2)OCO3)CC1 [MMV676444] | 0.4% | 5.5% | 9% | 8% | – |
| CCCn1c(CNc2ccccc2O)nc2ccccc21 [MMV676445] | 1.2% | 3.6% | 6% | 3.3% | – |
| CCc1nc2ccccc2n1CC(O)COc1cc(C)ccc1Cl (stereo not drawn) [MMV676449] | 4.5% | 6% | 1.5% | 3.5% | – |
| CCOC(=O)c1cc(-c2csc(Nc3c(C)cc(C)cc3C)n2)on1 [MMV676461] | -2.6% | 4% | 6% | 15% | – |
| NC(CC(=O)c1ccc(Cl)cc1Cl)C(Cl)(Cl)Cl (stereo not drawn) [MMV676468] | – | – | – | – | Cruzain 0’ Inhibition ([1]; 0’ (pre-incubation time)): 2.5%; Cruzain 10’ Inhibition ([1]; 10’ (pre-incubation time)): 0.4%; TbrCatL 0’ Inhibition ([2]; 0’ (pre-incubation time)): -5%; TbrCatL 10’ Inhibition ([2]; 10’ (pre-incubation time)): -2% |
| CCOc1ccc(OCC(=O)Nc2cc(C)cc(C)c2)cc1 [MMV676470] | – | – | – | – | Cruzain 0’ Inhibition ([1]; 0’ (pre-incubation time)): 6%; Cruzain 10’ Inhibition ([1]; 10’ (pre-incubation time)): 9%; TbrCatL 0’ Inhibition ([2]; 0’ (pre-incubation time)): -0.9%; TbrCatL 10’ Inhibition ([2]; 10’ (pre-incubation time)): 4% |
| COc1cccc(OC)c1C(=O)Nc1ccc(Cl)c(-c2nc3ccccc3s2)c1 [MMV676472] | – | – | – | – | Cruzain 0’ Inhibition ([1]; 0’ (pre-incubation time)): 8%; Cruzain 10’ Inhibition ([1]; 10’ (pre-incubation time)): 14%; TbrCatL 0’ Inhibition ([2]; 0’ (pre-incubation time)): 4%; TbrCatL 10’ Inhibition ([2]; 10’ (pre-incubation time)): -2% |
| COc1ccccc1OCCCCn1c(C2CC2)nc2ccccc21 [MMV676474] | -7% | -11% | -3.8% | -17% | – |
| Cc1cc(C)cc(COc2ccc3c(C)c(CCC(=O)O)c(=O)oc3c2C)c1 [MMV676476] | 1.9% | -3.3% | -17% | -2.6% | – |
| CCc1c(C)nc(-n2nc(C)cc2NC(=O)c2ccccc2SC)[nH]c1=O [MMV676477] | -0.2% | -11% | -4% | -17% | – |
| O=C(C1CCN(c2nnc(-n3cccc3)s2)CC1)N1CCC(Cc2ccccc2)CC1 [MMV676478] | – | – | – | – | Cruzain 0’ Inhibition ([1]; 0’ (pre-incubation time)): 0.9%; Cruzain 10’ Inhibition ([1]; 10’ (pre-incubation time)): 2.5%; TbrCatL 0’ Inhibition ([2]; 0’ (pre-incubation time)): 2.2%; TbrCatL 10’ Inhibition ([2]; 10’ (pre-incubation time)): -8% |

| Compound | Cruzain Inhibition 0’ [1, 3] | Cruzain Inhibition 10’ [1, 4] | TbrCatL Inhibition 0’ [2, 3] | TbrCatL Inhibition 10’ [2, 4] | further results |
| --- | --- | --- | --- | --- | --- |
| COC(=O)c1c(NC(=O)c2cc3ccccc3oc2=O)sc2c1CCN(Cc1ccccc1)C2 [MMV676480] | 24% | 5.6% | 0.5% | -3.2% | – |
| O=C(Nc1n[nH]c(=S)s1)c1cc(Br)ccc1Cl [MMV676492] | – | – | – | – | Cruzain Inhibition 0’ [1, 5]: 10%; Cruzain Inhibition 10’ [1, 6]: 27%; TbrCatL Inhibition 0’ [2, 5]: -16%; TbrCatL Inhibition 10’ [2, 6]: 35% |
| O=C(Nc1nnc(-c2ccc(Cl)s2)o1)c1ccc(Cl)s1 [MMV676501] | -8% | -16% | -3.6% | -11% | – |
| Cc1ccc2oc(-c3cc(NC(=O)Cc4ccccc4)ccc3Cl)nc2c1 [MMV676509] | 21% | 5% | 11% | 12% | – |
| O=C(Nc1nc(-c2ccccn2)cs1)c1cncn1-c1ccccc1 [MMV676512] | -27% | -84% | -27% | -109% | Increase in the initial velocity of the reaction (%) 5 µM using PB samples Cruzain [1]: 84 ± 54%; Increase in the initial velocity of the reaction (%) 5 µM using solid samples Cruzain [1]: 14 ± 9%; Increase in the initial velocity of the reaction (%) 100 µM using solid samples Cruzain [1]: 24 ± 5%; Increase in the enzyme velocity in confirmatory assays [1]: no increase in the enzyme velocity; Increase in the initial velocity of the reaction (%) 5 µM using PB samples TbrCatL [2]: 109 ± 71%; Increase in initial velocity of substrate cleavage in comparison to the DMSO control [2]: 2 fold |
| O=C(c1cc2ccccc2o1)N1CCN(Cc2ccc3c(c2)OCO3)CC1 [MMV676520] | -1.2% | -3.3% | 5% | -4.7% | – |
| Nc1cccnc1Nc1ccc(Cl)cc1 [MMV676524] | – | – | – | – | Cruzain 0’ Inhibition ([1]; 0’ (pre-incubation time)): 4.7%; Cruzain 10’ Inhibition ([1]; 10’ (pre-incubation time)): 13%; TbrCatL 0’ Inhibition ([2]; 0’ (pre-incubation time)): 11%; TbrCatL 10’ Inhibition ([2]; 10’ (pre-incubation time)): 11% |
| COc1ccc(-c2cc(NC(=O)c3ccc(F)cc3Cl)ccc2OC)cc1 [MMV676526] | -17% | -8% | -15% | -15% | – |
| Cc1cccc(NC(=O)c2cc(S(=O)(=O)N(C)c3ccc(F)cc3)ccc2Cl)n1 [MMV676528] | 3.7% | 6% | -3% | 1.8% | – |
| COCC(C)NC(=O)CSc1ncnc2sc(-c3ccccc3)cc12 (stereo not drawn) [MMV676536] | 18% | 16% | 13% | 33% | – |
| O=C(NCCc1c[nH]c2ccccc12)c1cc2ccccc2oc1=O [MMV676539] | 14% | 14% | 10% | 20% | – |
| COc1ccc(Nc2ccccc2NC(=O)c2ccc(=O)[nH]c2)cc1 [MMV676554] | 2.8% | 0.5% | 10% | 4.5% | – |
| Cc1nnc(NCc2cccc(Cl)c2)c2ccccc12 [MMV676555] | -1.4% | 3.2% | 3% | -4.6% | – |
| CC1=NN(c2nc3ccccc3s2)C(=O)C1Cc1cccc2ccccc12 (stereo not drawn) [MMV676558] | -23% | -18% | -23% | -63% | – |
| COc1ccc(-c2nc(-c3cccc(NC(=O)Cc4ccc(F)cc4)c3)no2)cc1OC [MMV676571] | 6% | 4% | 8% | 10% | – |
| O=C(NC1=NCCS1)c1sc2cc(F)ccc2c1Cl [MMV676584] | -2.7% | 9% | -0.5% | -9% | – |
| Nc1c2c(nc3sc4c(c13)CCCC4)CCCC2 [MMV676588] | 11% | 13% | 14% | 2% | – |
| O=C(CCC1CCCCC1)Nc1cccc(-c2nnc(-c3ccco3)o2)c1 [MMV676589] | 0% | 4% | 3.3% | 4.4% | – |
| CCCn1nnc(NC(=O)COc2ccc(C3CCCCC3)cc2)n1 [MMV676597] | 3% | -3.3% | 10% | 10% | – |
| CC(C)(C)n1nc(Cc2cccc3ccccc23)c2c(N)ncnc21 [MMV676599] | – | – | – | – | Cruzain 0’ Inhibition ([1]; 0’ (pre-incubation time)): 9%; Cruzain 10’ Inhibition ([1]; 10’ (pre-incubation time)): 11%; TbrCatL 0’ Inhibition ([2]; 0’ (pre-incubation time)): 4.6%; TbrCatL 10’ Inhibition ([2]; 10’ (pre-incubation time)): -5% |
